The values that follow come from US20140005163A1 (NOVARTIS AG, priority 2010, published 2014).

For orientation: IC50 means the concentration that inhibits the measured activity by half.

Assay [1] deals with PKB Ser473 phosphorylation in Rat1-myr-HA-p110 beta cells. The experiment in a line: Reverse protein array assay, PKB Ser473 phosphorylation in Rat1-myr-p110 beta cells. Format: cell-based. The settings on record: 0.5 h, pAkt Ser473, 30 minutes incubation, read-out: p-PKB IC50. Put shortly: (§1)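 Compound exposure lasted 30 min in Rat1 cells bearing membrane-targeted HA-p110 isoforms, using 8 serial concentrations. Arrayed lysates, each spotted at four dilutions, gave relative fluorescence signals for phospho-Ser473 PKB.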

For the next assay, the target named is T1, PI3K alpha (Homo sapiens, UniProt P42336).
T1 construct: p85(iSH2) fusion partner (see partner chain) (N); His tag (C); made in house; host or cells: baculovirus; Tn5 (Trichoplusia ni) or TiniPro insect cells
The experiment in a line: PI3K alpha kinase assay (Kinase-Glo luminescence). Format: biochemical. Put shortly:
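IC50 is taken from a four-parameter logistic fit of 8-point dilutions, with Kinase-Glo luminescence reporting residual ATP. Reactions ran 60 min at room temperature in TRIS pH 7.5 buffer with MgCl2, NaCl, CHAPS and DTT. Final levels were 10 nM enzyme, 1 μM ATP and 10 μg/mL PI.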
In general terms: In Kinase-Glo more light means more ATP remaining.

In the next assay the target is T2, PI3K beta (Homo sapiens, UniProt P42338).
T2 construct: for the full-length p110-b subunit are generated and fused by overlapping PCR; p85(iSH2) fusion partner (see partner chain) (N); His tag (C); made in house; host or cells: baculovirus; Tn5 (Trichoplusia ni) or TiniPro insect cells
Description: PI3K beta kinase assay (Kinase-Glo luminescence). In kind it is biochemical. In a few lines: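 IC50 is derived by four-parameter logistic curve fitting of Kinase-Glo luminescence, which measures ATP left after a 60 min room-temperature reaction. Conditions are 25 nM His-tagged p85(iSH2)-p110β, 1 μM ATP and 10 μg/mL bovine liver phosphatidylinositol.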

Another assay has as its target T3, PI3K delta (Homo sapiens, UniProt O00329).
T3 construct: for the full-length p110-d subunit are generated and fused by overlapping PCR; p85(iSH2) fusion partner (see partner chain) (N); His tag (C); made in house; host or cells: baculovirus; Tn5 (Trichoplusia ni) or TiniPro insect cells
The experiment in a line: PI3K delta kinase assay (Kinase-Glo luminescence). Format: biochemical. In a few lines:
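ATP depletion was measured by Kinase-Glo luminescence after a 60-minute room-temperature reaction containing 1 μM ATP, 10 μg/mL PI and 10 nM His-tagged p85(iSH2)-linker-p110δ (BV-1060). Buffer: Tris pH 7.5, 3 mM MgCl2, 50 mM NaCl, 0.05% CHAPS, 1 mM DTT. IC50 values came from four-parameter fits over eight concentrations.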

Another assay addresses T4, PI3K gamma (Homo sapiens, UniProt P48736).
T4 construct: His tag (C); made in house; host or cells: baculovirus (pVL1393); Tn5 or TiniPro insect cells; construct from Roger Williams lab, MRC LMB
The experiment in a line: PI3K gamma kinase assay (Kinase-Glo luminescence). In kind it is biochemical. In a few lines:
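PI3Kγ (150 nM) reaction run 120 min at room temperature with phosphatidylinositol substrate (10 μg/mL) and ATP (1 μM) in Tris pH 7.5 buffer containing MgCl2, NaCl, CHAPS and DTT. Remaining ATP detected by Kinase-Glo luminescence; 8 concentrations per compound, IC50 from 4-parameter curve fitting.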

In assay [2] the test system is PKB Ser473 phosphorylation in Rat1-myr-HA-p110 delta cells. The experiment in a line: Reverse protein array assay, PKB Ser473 phosphorylation in Rat1-myr-p110 delta cells. In kind it is cell-based. The note with it: read-out: p-PKB IC50. In a few lines: as §1

T2 sequence (P42338 with tags, fused parts or gaps limits assumed): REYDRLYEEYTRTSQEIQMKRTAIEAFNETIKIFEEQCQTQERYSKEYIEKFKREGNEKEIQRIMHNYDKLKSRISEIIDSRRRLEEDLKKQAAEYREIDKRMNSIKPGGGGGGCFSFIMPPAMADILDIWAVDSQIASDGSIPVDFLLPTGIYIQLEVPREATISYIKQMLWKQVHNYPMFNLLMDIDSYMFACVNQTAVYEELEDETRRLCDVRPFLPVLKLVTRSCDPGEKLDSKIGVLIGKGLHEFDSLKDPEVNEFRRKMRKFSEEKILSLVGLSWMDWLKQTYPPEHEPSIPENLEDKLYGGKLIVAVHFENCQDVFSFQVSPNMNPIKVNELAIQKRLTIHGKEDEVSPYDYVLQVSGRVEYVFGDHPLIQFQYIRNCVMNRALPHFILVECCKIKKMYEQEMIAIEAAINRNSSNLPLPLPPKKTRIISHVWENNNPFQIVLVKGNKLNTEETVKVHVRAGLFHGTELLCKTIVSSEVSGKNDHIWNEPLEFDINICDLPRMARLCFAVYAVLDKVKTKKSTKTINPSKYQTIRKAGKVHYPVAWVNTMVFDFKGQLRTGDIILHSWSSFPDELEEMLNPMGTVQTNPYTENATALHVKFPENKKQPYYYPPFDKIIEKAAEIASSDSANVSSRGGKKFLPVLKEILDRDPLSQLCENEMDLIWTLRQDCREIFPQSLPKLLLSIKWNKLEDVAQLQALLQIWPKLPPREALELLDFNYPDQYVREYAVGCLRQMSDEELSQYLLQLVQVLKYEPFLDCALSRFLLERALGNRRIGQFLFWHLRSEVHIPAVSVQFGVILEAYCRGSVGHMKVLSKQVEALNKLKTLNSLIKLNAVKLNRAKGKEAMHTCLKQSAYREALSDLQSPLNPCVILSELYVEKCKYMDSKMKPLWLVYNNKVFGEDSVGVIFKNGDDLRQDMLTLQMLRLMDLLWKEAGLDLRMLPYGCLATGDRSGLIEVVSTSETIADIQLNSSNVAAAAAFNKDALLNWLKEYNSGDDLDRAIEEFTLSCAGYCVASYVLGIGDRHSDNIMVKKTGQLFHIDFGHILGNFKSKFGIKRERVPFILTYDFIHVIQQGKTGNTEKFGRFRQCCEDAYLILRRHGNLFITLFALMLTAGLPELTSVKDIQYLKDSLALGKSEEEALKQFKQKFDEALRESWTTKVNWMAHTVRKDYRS
T1 sequence (P42336 with tags, fused parts or gaps limits assumed): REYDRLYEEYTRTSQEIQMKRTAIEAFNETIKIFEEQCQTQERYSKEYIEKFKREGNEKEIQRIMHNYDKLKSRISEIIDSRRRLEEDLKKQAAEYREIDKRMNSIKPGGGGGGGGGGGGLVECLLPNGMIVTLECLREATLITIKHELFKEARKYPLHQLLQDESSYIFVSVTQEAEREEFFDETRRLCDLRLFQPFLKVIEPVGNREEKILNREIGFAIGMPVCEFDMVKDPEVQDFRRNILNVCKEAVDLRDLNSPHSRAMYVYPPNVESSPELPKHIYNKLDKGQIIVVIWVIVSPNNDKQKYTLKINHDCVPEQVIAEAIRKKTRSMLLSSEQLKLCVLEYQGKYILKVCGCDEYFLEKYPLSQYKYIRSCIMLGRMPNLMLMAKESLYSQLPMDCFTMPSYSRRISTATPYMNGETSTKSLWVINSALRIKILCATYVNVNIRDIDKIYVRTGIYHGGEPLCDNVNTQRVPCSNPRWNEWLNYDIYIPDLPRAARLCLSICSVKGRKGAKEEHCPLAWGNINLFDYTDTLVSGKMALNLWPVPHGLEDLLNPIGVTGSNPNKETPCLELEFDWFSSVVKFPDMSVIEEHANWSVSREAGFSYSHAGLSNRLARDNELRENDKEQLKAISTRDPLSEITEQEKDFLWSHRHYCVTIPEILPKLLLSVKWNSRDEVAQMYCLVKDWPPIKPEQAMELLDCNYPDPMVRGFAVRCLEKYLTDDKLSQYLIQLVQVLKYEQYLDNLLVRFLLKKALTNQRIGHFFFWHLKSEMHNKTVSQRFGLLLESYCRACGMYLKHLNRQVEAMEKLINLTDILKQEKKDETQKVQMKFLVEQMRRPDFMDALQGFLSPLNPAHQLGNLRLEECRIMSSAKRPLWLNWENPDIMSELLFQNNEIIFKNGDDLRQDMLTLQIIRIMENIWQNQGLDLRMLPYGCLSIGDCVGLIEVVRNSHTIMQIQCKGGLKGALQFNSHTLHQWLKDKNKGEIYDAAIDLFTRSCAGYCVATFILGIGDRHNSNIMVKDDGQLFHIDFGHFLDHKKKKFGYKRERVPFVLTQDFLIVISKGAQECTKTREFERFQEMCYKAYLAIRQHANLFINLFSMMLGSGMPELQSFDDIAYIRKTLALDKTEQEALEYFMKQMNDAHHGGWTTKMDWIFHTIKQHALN
T3 sequence (O00329 with tags, fused parts or gaps limits assumed): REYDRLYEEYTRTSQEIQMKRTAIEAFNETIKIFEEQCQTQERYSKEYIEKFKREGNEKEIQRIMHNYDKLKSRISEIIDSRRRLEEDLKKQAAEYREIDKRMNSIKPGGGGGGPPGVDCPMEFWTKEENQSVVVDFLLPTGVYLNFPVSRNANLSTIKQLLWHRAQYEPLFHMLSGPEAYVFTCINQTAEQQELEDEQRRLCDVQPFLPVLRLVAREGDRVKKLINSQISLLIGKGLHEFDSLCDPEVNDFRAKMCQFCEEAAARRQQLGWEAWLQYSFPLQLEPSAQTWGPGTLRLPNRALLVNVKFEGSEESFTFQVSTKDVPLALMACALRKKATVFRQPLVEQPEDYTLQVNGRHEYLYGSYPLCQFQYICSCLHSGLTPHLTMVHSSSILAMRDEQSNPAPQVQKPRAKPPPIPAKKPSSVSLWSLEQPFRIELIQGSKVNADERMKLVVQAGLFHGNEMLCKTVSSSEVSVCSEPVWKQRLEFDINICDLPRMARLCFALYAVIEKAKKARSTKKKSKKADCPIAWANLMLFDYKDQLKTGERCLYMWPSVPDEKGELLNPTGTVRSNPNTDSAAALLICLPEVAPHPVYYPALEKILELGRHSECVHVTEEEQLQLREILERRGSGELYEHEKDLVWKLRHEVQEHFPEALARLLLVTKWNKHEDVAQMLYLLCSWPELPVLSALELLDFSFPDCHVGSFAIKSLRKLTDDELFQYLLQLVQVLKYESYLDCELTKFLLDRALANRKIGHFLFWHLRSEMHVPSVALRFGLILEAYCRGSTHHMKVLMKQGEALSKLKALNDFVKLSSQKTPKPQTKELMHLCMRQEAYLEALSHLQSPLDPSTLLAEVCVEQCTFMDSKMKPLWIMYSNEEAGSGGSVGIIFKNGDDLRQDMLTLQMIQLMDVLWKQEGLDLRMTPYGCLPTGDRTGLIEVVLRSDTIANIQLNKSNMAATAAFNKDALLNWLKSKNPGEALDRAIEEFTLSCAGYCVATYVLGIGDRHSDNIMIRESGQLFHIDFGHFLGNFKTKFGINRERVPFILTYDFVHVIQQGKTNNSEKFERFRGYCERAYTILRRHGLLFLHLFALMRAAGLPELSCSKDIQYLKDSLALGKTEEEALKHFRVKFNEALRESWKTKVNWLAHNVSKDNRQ
T4 sequence (P48736 144-1102 limits assumed): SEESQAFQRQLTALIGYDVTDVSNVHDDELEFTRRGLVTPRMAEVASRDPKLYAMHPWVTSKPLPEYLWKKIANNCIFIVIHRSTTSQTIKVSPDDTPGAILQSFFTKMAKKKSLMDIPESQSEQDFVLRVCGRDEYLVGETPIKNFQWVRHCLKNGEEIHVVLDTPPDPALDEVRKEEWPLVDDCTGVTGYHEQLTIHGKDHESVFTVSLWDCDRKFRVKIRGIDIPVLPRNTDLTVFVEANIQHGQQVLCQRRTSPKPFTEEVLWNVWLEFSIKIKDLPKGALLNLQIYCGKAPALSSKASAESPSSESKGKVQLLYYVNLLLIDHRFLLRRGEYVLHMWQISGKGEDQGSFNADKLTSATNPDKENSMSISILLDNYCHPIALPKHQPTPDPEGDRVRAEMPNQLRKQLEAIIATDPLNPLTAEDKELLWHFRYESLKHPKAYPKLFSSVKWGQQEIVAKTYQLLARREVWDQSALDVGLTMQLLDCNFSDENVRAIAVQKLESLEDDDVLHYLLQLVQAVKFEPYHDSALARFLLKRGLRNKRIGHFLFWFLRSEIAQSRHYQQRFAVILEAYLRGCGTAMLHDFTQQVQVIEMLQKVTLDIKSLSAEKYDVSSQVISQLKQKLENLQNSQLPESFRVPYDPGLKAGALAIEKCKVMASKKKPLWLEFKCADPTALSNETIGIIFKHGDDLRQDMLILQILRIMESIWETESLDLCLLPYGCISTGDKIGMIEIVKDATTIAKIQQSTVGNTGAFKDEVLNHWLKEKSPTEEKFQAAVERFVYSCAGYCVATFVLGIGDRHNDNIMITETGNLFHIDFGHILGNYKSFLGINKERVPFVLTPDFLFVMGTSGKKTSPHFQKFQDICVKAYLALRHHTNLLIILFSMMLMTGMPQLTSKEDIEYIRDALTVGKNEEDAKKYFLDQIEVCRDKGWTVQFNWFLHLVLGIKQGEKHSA

Regarding `Cc1nn(C)cc1-n1c(=O)n(C)c2cnc3ccc(-c4cccc(O)c4)cc3c21` [Example 32.1, 1-(1,3-Dimethyl-1H-pyrazol-4-yl)-8-(3-hydroxy-phenyl)-3-methyl-1,3-dihydro-imidazo[4,5-c]quinolin-2-one], the IC50 in assay [1] was 110 nM; on PI3K alpha, 7 nM; at PI3K beta, 43 nM; at PI3K delta, 47 nM; on PI3K gamma, 140 nM; in assay [2], 193 nM.
On to `Cc1nn(C)cc1-n1c(=O)n(C)c2cnc3ccc(-c4ccc(CO)nc4)cc3c21` [Example 16.2, 1-(1,3-Dimethyl-1H-pyrazol-4-yl)-8-(6-hydroxymethyl-pyridin-3-yl)-3-methyl-1,3-dihydro-imidazo[4,5-c]quinolin-2-one], for which the IC50 in assay [1] was determined as 70 nM; at PI3K alpha it was 26 nM; at PI3K beta, 171 nM; on PI3K delta, 18 nM; on PI3K gamma, 489 nM; in assay [2], 151 nM.
